Patent US12503475B2 (Centessa Pharmaceuticals (UK) Limited, priority 2020, dated 2025)

Target: T1, human orexin type 2 receptor (hOX2R) (Homo sapiens, UniProt O43614)
T1 construct: expressed in transfected cells
T1 sequence (O43614 1-444): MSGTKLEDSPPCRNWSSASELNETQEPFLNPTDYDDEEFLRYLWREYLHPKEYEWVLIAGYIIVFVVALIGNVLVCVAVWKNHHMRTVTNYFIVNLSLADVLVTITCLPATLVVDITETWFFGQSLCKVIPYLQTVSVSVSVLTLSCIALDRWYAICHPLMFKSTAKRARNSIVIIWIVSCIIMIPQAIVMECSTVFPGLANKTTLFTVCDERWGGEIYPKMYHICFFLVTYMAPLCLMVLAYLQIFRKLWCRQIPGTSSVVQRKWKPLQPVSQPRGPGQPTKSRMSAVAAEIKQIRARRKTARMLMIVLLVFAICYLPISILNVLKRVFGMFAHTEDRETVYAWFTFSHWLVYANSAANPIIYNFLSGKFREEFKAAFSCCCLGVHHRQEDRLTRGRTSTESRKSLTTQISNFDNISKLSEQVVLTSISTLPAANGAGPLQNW
Experiment: Measurement of orexin type 2 receptor agonist activity (FLIPR calcium fluorescence)
Type: cell-based
Conditions: CHO cells expressing hOX2R, FLIPR calcium fluorescence; for EC50: read-out: hOx2 pEC50 (converted); for Emax: CHO, read-out: hOx2 Emax (%)
Procedure, shortened: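 Agonism was read as fluorescence in cells stably expressing human OX2R. E. is the response at 10 μM relative to orexin A as full agonist (100%).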

SMILES	EC50 [nM]	Emax [%]
CS(=O)(=O)N[C@@H]1[C@H](Cc2cccc(-c3ccccc3)c2F)N(C(=O)NCCC#N)CC12CC2 [Compound 330, (6S,7S)-N-(2-cyanoethyl)-6-((2-fluoro-[1,1′-biphenyl]-3-yl)methyl)-7-(methylsulfonamido)-5-azaspiro[2.4]heptane-5-carboxamide]	1 to 10	90 to 100
O=C([C@H]1CCO1)N1CC2(CC2)[C@H](NS(=O)(=O)C(F)(F)F)[C@@H]1Cc1cccc(-c2ccccc2)c1F [Compound 167, 1,1,1-trifluoro-N-((6S,7S)-6-((2-fluoro-[1,1′-biphenyl]-3-yl)methyl)-5-((R)-oxetane-2-carbonyl)-5-azaspiro[2.4]heptan-7-yl)methanesulfonamide]	10 to 100	80 to 90
O=C([C@H]1CCO1)N1CC2(CC2)[C@H](NS(=O)(=O)C2CC2)[C@@H]1Cc1cc(F)cc(-c2cc(F)cc(F)c2)c1F [Compound 405, N-((6S,7S)-5-((R)-oxetane-2-carbonyl)-6-((2,3′,5,5′-tetrafluoro-[1,1′-biphenyl]-3-yl)methyl)-5-azaspiro[2.4]heptan-7-yl)cyclopropanesulfonamide]	1 to 10	90 to 100
[2H]c1c([2H])c([2H])c(-c2cccc(C[C@H]3[C@@H](NS(=O)(=O)CF)C4(CC4)CN3C(=O)[C@H]3CCO3)c2F)c([2H])c1[2H] [Compound 365, 1-fluoro-N-((6S,7S)-6-((2-fluoro-[1,1′-biphenyl]-3-yl-2′,3′,4′,5′,6′-d5)methyl)-5-((R)-oxetane-2-carbonyl)-5-azaspiro[2.4]heptan-7-yl)methanesulfonamide]	1 to 10	90 to 100
COC[C@@H]1CCN1C(=O)N1CC2(CC2)[C@H](NS(C)(=O)=O)[C@@H]1Cc1cccc(-c2ccccc2)c1F [Compound 102, N-((6S,7S)-6-((2-fluoro-[1,1′-biphenyl]-3-yl)methyl)-5-((S)-2-(methoxymethyl)azetidine-1-carbonyl)-5-azaspiro[2.4]heptan-7-yl)methanesulfonamide]	1 to 10	90 to 100
CCN(C)C(=O)N1CC2(CC2)[C@H](NS(C)(=O)=O)[C@@H]1Cc1cccc(-c2ccccc2)c1F [Compound 88, (6S,7S)-N-ethyl-6-((2-fluoro-[1,1′-biphenyl]-3-yl)methyl)-N-methyl-7-(methylsulfonamido)-5-azaspiro[2.4]heptane-5-carboxamide]	0.0794 to 1	90 to 100
CC(C)(F)C(=O)N1CC2(CC2)C(NS(C)(=O)=O)C1Cc1cccc(-c2ccccc2)c1 (racemic) [Compound 13, N-(6-([1,1′-biphenyl]-3-ylmethyl)-5-(2-fluoro-2-methylpropanoyl)-5-azaspiro[2.4]heptan-7-yl)methanesulfonamide]	100 to 1000	80 to 90
COc1c(C[C@H]2[C@@H](NS(C)(=O)=O)C3(CC3)CN2C(=O)NCC(F)(F)F)cccc1-c1ccccc1 [Compound 343, (6S,7S)-6-((2-methoxy-[1,1′-biphenyl]-3-yl)methyl)-7-(methylsulfonamido)-N-(2,2,2-trifluoroethyl)-5-azaspiro[2.4]heptane-5-carboxamide]	10 to 100	70 to 80
C[C@H](F)C(=O)N1CC2(CC2)[C@H](NS(C)(=O)=O)[C@@H]1Cc1cccc(-c2ccccc2)c1F [Compound 346, N-((6S,7S)-6-((2-fluoro-[1,1′-biphenyl]-3-yl)methyl)-5-((S)-2-fluoropropanoyl)-5-azaspiro[2.4]heptan-7-yl)methanesulfonamide]	1 to 10	90 to 100
CCNC(=O)N1CC2(CC2)C(NS(=O)(=O)CF)C1Cc1cccc(-c2ccccc2)c1F (racemic) [Compound 109, N-ethyl-6-((2-fluoro-[1,1′-biphenyl]-3-yl)methyl)-7-((fluoromethyl)sulfonamido)-5-azaspiro[2.4]heptane-5-carboxamide]	0.0794 to 1	90 to 100
CC(C)(O)C(=O)N1CC2(CC2)[C@H](NS(C)(=O)=O)[C@@H]1Cc1cccc(-c2ccccc2F)c1F [Compound 361, N-((6S,7S)-6-((2,2'-difluoro-[1,1′-biphenyl]-3-yl)methyl)-5-(2-hydroxy-2-methylpropanoyl)-5-azaspiro[2.4]heptan-7-yl)methanesulfonamide]	10 to 100	80 to 90
CC(F)(F)C(=O)N1CC2(CC2)C(NS(C)(=O)=O)C1Cc1cccc(-c2ccccc2)c1 (racemic) [Compound 9, N-(6-([1,1′-biphenyl]-3-ylmethyl)-5-(2,2-difluoropropanoyl)-5-azaspiro[2.4]heptan-7-yl)methanesulfonamide]	100 to 1000	40 to 50
CN(C)S(=O)(=O)N[C@@H]1[C@H](Cc2cccc(-c3ccccc3)c2F)N(C(=O)[C@H](O)C(F)(F)F)CC12CC2 [Compound 119, N-((6S,7S)-6-((2-fluoro-[1,1′-biphenyl]-3-yl)methyl)-5-((S)-3,3,3-trifluoro-2-hydroxypropanoyl)-5-azaspiro[2.4]heptan-7-yl)-N,N-dimethylsulfuric diamide]	0.0794 to 1	90 to 100
CS(=O)(=O)NC1C(Cc2cccc(-c3ccccc3)c2)N(C(=O)C2CC(F)(F)C2)CC12CC2 (racemic) [Compound 12, N-(6-([1,1-biphenyl]-3-ylmethyl)-5-(3,3-difluorocyclobutane-1-carbonyl)-5-azaspiro[2.4]heptan-7-yl)methanesulfonamide]	100 to 1000	80 to 90
O=C(NCC1COC1)N1CC2(CC2)[C@H](NS(=O)(=O)CF)[C@@H]1Cc1cccc(-c2ccccc2)c1F [Compound 366, (6S,7S)-6-((2-fluoro-[1,1′-biphenyl]-3-yl)methyl)-7-((fluoromethyl)sulfonamido)-N-(oxetan-3-ylmethyl)-5-azaspiro[2.4]heptane-5-carboxamide]	1 to 10	90 to 100
O=C(NCCF)N1CC2(CC2)[C@H](NS(=O)(=O)CF)[C@@H]1Cc1cccc(-c2ccccc2)c1F [Compound 367, (6S,7S)-6-((2-fluoro-[1,1′-biphenyl]-3-yl)methyl)-N-(2-fluoroethyl)-7-((fluoromethyl)sulfonamido)-5-azaspiro[2.4]heptane-5-carboxamide]	0.0794 to 1	90 to 100
CC1CN(C(=O)N2CC3(CC3)C(NS(C)(=O)=O)C2Cc2cccc(-c3ccccc3)c2)C1 (racemic) [Compound 57, N-(6-([1,1′-biphenyl]-3-ylmethyl)-5-(3-methylazetidine-1-carbonyl)-5-azaspiro[2.4]heptan-7-yl)methanesulfonamide]	1 to 10	90 to 100
CN(C)C(=O)N1CC2(CC2)[C@H](NS(C)(=O)=O)[C@@H]1Cc1cc(F)cc(-c2ccccc2)c1F [Compound 354, (6S,7S)-6-((2,5-difluoro-[1,1′-biphenyl]-3-yl)methyl)-N,N-dimethyl-7-(methylsulfonamido)-5-azaspiro[2.4]heptane-5-carboxamide]	10 to 100	90 to 100
O=C([C@H](O)CF)N1CC2(CC2)[C@H](NS(=O)(=O)C(F)F)[C@@H]1Cc1cccc(-c2cccc(F)c2)c1F [Compound 380, N-((6S,7S)-6-((2,3′-difluoro-[1,1′-biphenyl]-3-yl)methyl)-5-((S)-3-fluoro-2-hydroxypropanoyl)-5-azaspiro[2.4]heptan-7-yl)-1,1-difluoromethanesulfonamide]	0.0794 to 1	90 to 100
N#CC1(C(=O)N2CC3(CC3)[C@H](NS(=O)(=O)CF)[C@@H]2Cc2cccc(-c3ccccc3)c2F)CCC1 [Compound 181, N-((6S,7S)-5-(1-cyanocyclobutane-1-carbonyl)-6-((2-fluoro-[1,1′-biphenyl]-3-yl)methyl)-5-azaspiro[2.4]heptan-7-yl)-1-fluoromethanesulfonamide]	1 to 10	90 to 100
O=C([C@H](O)CF)N1CC2(CC2)[C@H](NS(=O)(=O)C(F)F)[C@@H]1Cc1cc(F)cc(-c2ccccc2)c1F [Compound 390, N-((6S,7S)-6-((2,5-difluoro-[1,1′-biphenyl]-3-yl)methyl)-5-((S)-3-fluoro-2-hydroxypropanoyl)-5-azaspiro[2.4]heptan-7-yl)-1,1-difluoromethanesulfonamide]	1 to 10	90 to 100
CC(C)NC(=O)N1CC2(CC2)[C@H](NS(C)(=O)=O)[C@@H]1Cc1cccc(-c2ccccc2)c1F [Compound 85]	0.0794 to 1	90 to 100
CS(=O)(=O)N[C@@H]1[C@H](Cc2cccc(-c3ccccc3)c2F)N(C(=O)[C@H](O)C(F)(F)F)CC12CC2 [Compound 56, N-((6S,7S)-6-((2-fluoro-[1,1′-biphenyl]-3-yl)methyl)-5-((S)-3,3,3-trifluoro-2-hydroxypropanoyl)-5-azaspiro[2.4]heptan-7-yl)methanesulfonamide]	1 to 10	90 to 100
CS(=O)(=O)N[C@@H]1[C@H](Cc2cccc(-c3ccccc3)c2)N(C(=O)[C@H]2CCO2)CC12CC2 [Compound 55, N-((6S,7S)-6-([1,1′-biphenyl]-3-ylmethyl)-5-((R)-oxetane-2-carbonyl)-5-azaspiro[2.4]heptan-7-yl)methanesulfonamide]	10 to 100	90 to 100
